{
  "source": "patent US20110111437A1",
  "about": "“Biomarkers For Prognosis of Pulmonary Diseases” (THE UNIVERSITY OF PITTSBURGH-OF THE COMMONWEALTH SYSTEM OF …, priority 2009, published 2011)",
  "test_system": "CD4+CD28null T cells from lung transplant recipients with BOS",
  "test": "Inhibition of proliferation by cyclosporine A (BrdU incorporation, anti-CD3 stimulation)",
  "assay_type": "cell-based, human",
  "conditions": "preliminary findings, n=2 subjects",
  "procedure": "Inhibition of Proliferation by Cyclosporine A (CsA) Segregated CD28+ and CD28null CD4 T-cell subpopulations were individually cultured in duplicate wells coated with anti-CD3 monoclonal antibody (OKT3) (see above). Autologous nurse cells, positively selected during the initial CD4 T-cell isolations (see above) were added in a 3:1 nurse cell:CD4 T-cell ratio. In order to eliminate potential confounding by CD4dim monocytes, all CD4+ cells were depleted from the nurse cells (<<1% residual), prior to their use in cultures, by positive selection with anti-CD4-coated magnetic beads (Invitrogen, Carlsbad, Calif.). Cyclosporine (Novartis, East Hanover, N.J.) to a final concentration of 100 ng/ml was added to half the wells. Proliferation within the respective CD4 subpopulations were measured by bromodeoxyuridine (BrdU) incorporation, using reagents and methods supplied in a kit (BD Pharmingen). In brief, BrdU in a final concentration of 10 μM was added to cultures two days prior to their harvests. After 5±1 days of culture, cells were harvested from wells and stained with anti-CD4, fixed and permeabilized, and then incubated with anti-BrdU and 7-amino-actinomycin (7-AAD). The proportion of proliferating CD4+ T cells (BrdU+) among the viable cells (≧diploid DNA content) was determined by flow cytometry.",
  "data": [
    {"compound": "C=CC[C@@H]1/C=C(\\C)C[C@H](C)C[C@H](OC)[C@H]2O[C@@](O)(C(=O)C(=O)N3CCCC[C@H]3C(=O)O[C@H](/C(C)=C/[C@@H]3CC[C@@H](O)[C@H](OC)C3)[C@H](C)[C@@H](O)CC1=O)[C@H](C)C[C@@H]2OC", "note": "[tacrolimus]", "values": [
      {"measurement": "resistance of the cells to the drug", "result": "relatively resistant"}
    ]}
  ]
}
